Data set [1] concerns the target esterase solution prepared from a purified microsome fraction of the liver of a rat. The experiment in a line: Esterase inhibiting activity (hydrolysis of methyl butyrate). The data set is classed as biochemical. The conditions noted are these: pH 8.0, 37° C., 60 min. The method, then:
1. Esterase inhibiting activity
A 10 micromole quantity of methyl butyrate in a 50% ethanol solution is added as a substrate to a specified amount of buffer solution containing 0.1 mole of trishydrochloric acid (pH 8.0). To the mixture is further added a 50% ethanol solution of the compound of the invention, immediately followed by addition of an esterase solution prepared from a purified microsome fraction of the liver of a rat (adjusted to hydrolyze 9 micromoles of methyl butyrate at 37° C. in one hour) as an enzyme solution. The mixture is reacted at 37° C. for 60 minutes.
After the reaction, alkaline hydroxylamine is added to the mixture to form a hydroxamic acid derivative of methyl butyrate, and a ferric salt is added to the derivative. The resulting red color is colorimetrically determined (at a wavelength of 540 nm) to determine the amount of remaining methyl butyrate. The esterase inhibiting ratios of the present compound at (at least three) different concentrations are plotted as ordinate, and the logarithms of the concentrations as abscissa to obtain a line, which gives the 50% inhibition concentration (IC50).

The next data set addresses chymotripsin (Bos taurus, UniProt P00766). The experiment in a line: Chymotripsin inhibiting activity (ATEE hydrolysis). The data set is classed as biochemical. The conditions noted are these: 1 × 10^-4 mole; pH 8.0, 37° C., ATEE substrate. As for the experimental part: 2. Chymotripsin inhibiting activity
An enzyme solution (0.1 unit of chymotripsin) is added to a specified quantity of buffer solution containing 0.1 mole of trishydrochloric acid (pH 8.0). To the mixture is further added a 50% ethanol solution of the compound of the invention, and the resulting mixture is reacted at 37° C. for 20 minutes.
On completion of the reaction, 10 micromoles of N-acetyl-L-thyrosine (ATEE) serving as a substrate is added to the mixture, and the resulting mixture is reacted at 37° C. for 30 minutes. After the completion of the reaction, the amount of remaining ATEE is determined by the same hydroxamic acid method as used in the method of determining the esterase inhibiting activity. The percent chymotripsin inhibition is given by
Percent inhibition=(A-B/A)×100
wherein A is the amount of hydrolyzed esters in the reaction system not containing the compound of the invention, and B is the amount of hydrolyzed esters in the reaction system containing the present compound.

A further data set concerns plasma triglycerides. Put plainly: Antilipemic effect (plasma triglycerides after oral olive oil). The data set is classed as in vivo, male Wistar rats. As to conditions: Wistar rats, oral in olive oil (100 mg in 5 ml, 5 ml/kg), plasma 2 h after dosing. The method, then:
Seven-week-old male Wistar rats weighing 200 to 220 g are used, 5 rats in each group.
The compound of the invention (100 mg) is dissolved in 5 ml of olive oil. The olive oil containing the compound is orally given to the rat with a probe at a dose of 5 ml/kg. Two hours thereafter, 6 ml of whole blood is withdrawn from the descending aorta of the rat under ether anesthesia with a syringe containing heparin. The blood is centrifuged at 5° C. and 3000 r.p.m. to obtain the plasma.
The plasma collected is used for determining the triglycerides content, using a triglycerides measuring kit (trade mark "Triglycerides-B Test Wako," product of Wako Junyaku Co., Ltd., Japan). Olive oil containing no compound is similarly given to a control group, while no treatment is conducted for a normal group. The triglycerides content in the plasma is also determined for these groups in the same manner as is the case with the test groups.
The percent hyperlipidemia inhibition achieved by the present compound is given by
Percent inhibitaion=(A-C/A-B)×100
in which A is the triglycerides content of the control group, B is the triglycerides content of the normal group, and C is the triglycerides content of the group to which the present compound is given.

Data set [2] in a line: Heat-stability on storage at 40° C. (HPLC content of undecomposed compound). The data set is classed as physicochemical. The conditions noted are these: for remaining at 288 h / remaining at 360 h: solid storage; for remaining at 288 h: 12th day; for remaining at 360 h: 15th day; for Content (%) Start: start (initial content). The method, then: The following compounds (200 mg each) were placed in transparent sample bottles, and left to stand at a constant temperature of 40° C. for 15 days. Thereafter, they were checked for the heat-stability by determining the change of content of the compounds which remained not decomposed as of the 12th and 15th day. The content was measured by high performance liquid chromatography using a 60:40 mixture of acetonitrile and water as an eluent, and the percentages of the content of the undecomposed compound were calculated based on the initial content.

Turning to `CC[C@H]1CC[C@@](CC)(C(=O)COS(=O)(=O)c2ccccc2)CC1` [Compound 1], in data set [1], the 50% inhibitory concentration (IC50) was found to be 35000 nM. In addition, the “Chymotripsin inhibition (%)” value on chymotripsin is given as 12%.
Turning to `CC[C@H]1CC[C@](CC)(C(=O)COS(=O)(=O)c2ccccc2)CC1` [Compound 3], 340 nM corresponded to half-maximal inhibition in data set [1] (IC50). For the same compound, the “Chymotripsin inhibition (%)” value at chymotripsin is reported as 25%. For the same compound, in the data set on plasma triglycerides, the “Antilipemic TG inhibition (%)” value was determined as 47.1%.
For `CC(C)[C@H]1CC[C@@](C)(C(=O)COS(=O)(=O)c2ccccc2)CC1` [Compound 5], in that order: 33000 nM, 14% and 49.0%.
In turn, `CC(C)[C@H]1CC[C@](C)(C(=O)COS(=O)(=O)c2ccccc2)CC1` [Compound 7] registered an IC50 in data set [1] of 16 nM. Further, at chymotripsin, the “Chymotripsin inhibition (%)” value stood at 26%. Also, the “Antilipemic TG inhibition (%)” value with plasma triglycerides worked out at 72.0%.
With `Cc1ccc(S(=O)(=O)OCC(=O)C2(C)CCC(C(C)C)CC2)cc1` (stereo not shown) [Compound 8], the IC50 in data set [1] is 560 nM. The “Chymotripsin inhibition (%)” value on chymotripsin is 35%.
On to `CC(C)C[C@H]1CC[C@](C)(C(=O)COS(=O)(=O)c2ccccc2)CC1` [Compound 11], for which, in data set [1], the IC50 was determined as 2200 nM. In addition, the “Chymotripsin inhibition (%)” value at chymotripsin is listed as 15%. In addition, the “Antilipemic TG inhibition (%)” value in the data set on plasma triglycerides is 70.5%.
On to `CC1(C)CCC(C(=O)COS(=O)(=O)c2ccccc2)CC1` [Compound 16, 1-(benzenesulfonyloxy)-2-(4,4-dimethylcyclohexyl)-2-ethanone], for which, in data set [1], the IC50 amounted to 5.8 nM. The “Chymotripsin inhibition (%)” value on chymotripsin came to 71%. For the same compound, the “Antilipemic TG inhibition (%)” value with plasma triglycerides is on record as 77.5%.
In turn, `Cc1cc(C)c(S(=O)(=O)OCC(=O)C2CCC(C)(C)CC2)c(C)c1` [Compound 17] gave an IC50 in data set [1] of 2 nM.
On the same count and under the same terms, then `COc1ccc(S(=O)(=O)OCC(=O)C2CCC(C)(C)CC2)cc1` [Compound 18], with 2500 nM.
In turn, `CCCC1(C)CCC(C(=O)COS(=O)(=O)c2ccccc2)CC1` (stereo not shown) [Compound 19] returned an IC50 in data set [1] of 4.2 nM. In addition, the “Chymotripsin inhibition (%)” value on chymotripsin stood at 34%. In addition, the “Antilipemic TG inhibition (%)” value in the data set with plasma triglycerides was determined as 95.4%.
Taken in the same sequence, the figures for `O=C(COS(=O)(=O)c1ccccc1)C1CCC2(CCCC2)CC1` [Compound 22] were 22 nM, 41% and 84.2%.
In the case of `Cc1ccc(S(=O)(=O)OCC(=O)C2CCC3(CCCC3)CC2)cc1` [Compound 23], the IC50 in data set [1] stood at 3000 nM.
Consider `O=C(COS(=O)(=O)c1ccccc1)C1CCC2(CCCCC2)CC1` [Compound 24], for which half-maximal inhibition in data set [1] (IC50) required 5.4 nM. Also, the “Chymotripsin inhibition (%)” value on chymotripsin stood at 61%. Further, the “Antilipemic TG inhibition (%)” value in the data set with plasma triglycerides came to 93.5%.
`CC(C)[C@H]1CC[C@H](C(=O)COS(=O)(=O)c2ccccc2)CC1` [Compound C-1]: in data set [2], the amount remaining at 288 h amounted to 92%, the fraction remaining at 360 h turned out to be 14% and the “Content (%) Start” value was found to be 100%.
Take `Cc1ccc(S(=O)(=O)OCC(=O)[C@H]2CC[C@H](C(C)(C)C)CC2)cc1` [Compound C-2]: in data set [2], the fraction remaining at 288 h is 93%, the fraction remaining at 360 h amounted to 16% and the “Content (%) Start” value amounted to 100%.
As for `Cc1cc(C)c(S(=O)(=O)OCC(=O)C2CCC(C(C)C)CC2)c(C)c1` (stereo not shown) [Compound C-3], in data set [2], the share remaining at 288 h amounted to 95%, the amount remaining at 360 h turned out to be 40% and the “Content (%) Start” value is 100%.
As for `CCOc1ccc(S(=O)(=O)OCC(=O)C2CCC(CC)CC2)cc1` (stereo not shown) [Compound C-4], in data set [2], the amount remaining at 288 h amounted to 91%, the share remaining at 360 h was determined as 15% and the “Content (%) Start” value is on record as 100%.
Regarding `O=C(COS(=O)(=O)c1ccccc1)C1CCCCC1` [Compound C-5], in data set [2], the share remaining at 288 h worked out at 85%, the amount remaining at 360 h came out at 15% and the “Content (%) Start” value amounted to 100%.
Take `CCOc1ccc(S(=O)(=O)OCC(=O)C2CCCCC2)cc1` [Compound C-6]: in data set [2], the amount remaining at 288 h was found to be 80%, the fraction remaining at 360 h was found to be 14% and the “Content (%) Start” value was determined as 100%.
On to `Cc1cc(C)c(S(=O)(=O)OCC(=O)C2CCCCC2)c(C)c1` [Compound C-7], for which, in data set [2], the amount remaining at 288 h worked out at 95%, the share remaining at 360 h stood at 20% and the “Content (%) Start” value came out at 100%.
In the case of `O=C(CCC1CCCCC1)COS(=O)(=O)c1ccccc1` [Compound C-8], in data set [2], the share remaining at 288 h stood at 72%, the share remaining at 360 h is 19% and the “Content (%) Start” value was found to be 100%.
For the compound `Cc1cc(C)c(S(=O)(=O)OCC(=O)C2(C)CCC(C(C)C)CC2)c(C)c1` (stereo not shown) [Compound T-6], in data set [2], the fraction remaining at 288 h was 100%, the amount remaining at 360 h was 100% and the “Content (%) Start” value is recorded as 100%.
`CC(C)[C@H]1CC[C@](C)(C(=O)COS(=O)(=O)c2ccccc2)CC1` [Compound T-7]: in data set [2], the share remaining at 288 h turned out to be 100%, the share remaining at 360 h is 100% and the “Content (%) Start” value is 100%.
Consider `Cc1ccc(S(=O)(=O)OCC(=O)C2(C)CCC(C(C)C)CC2)cc1` (stereo not shown) [Compound T-8], for which, in data set [2], the fraction remaining at 288 h is 100%, the fraction remaining at 360 h was 100% and the “Content (%) Start” value is 100%.
For the compound `COc1ccc(S(=O)(=O)OCC(=O)C2(C)CCC(CC(C)C)CC2)cc1` (stereo not shown) [Compound T-13], in data set [2], the share remaining at 288 h was determined as 100%, the share remaining at 360 h is 100% and the “Content (%) Start” value was determined as 100%.

Broadly, the IC50 is the concentration needed to halve the response being measured. In general, amount remaining refers to the share of the starting amount still present when the sample was taken.

These data come from US4675428A, “Sulfonic acid ester derivatives useful as antilipemic agents” (Taiho Pharmaceutical Company, Limited, priority 1982, dated 1987).
